Experimental data taken from the supplement of paper PMC10627819.

What was measured:
Test in all cases: fitness (endpoint OD595 vs no drug) (fraction); higher = more growth
S. pneumoniae D39V = test system: S. pneumoniae D39V
Summary of the method: (§1)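 Fitness compares growth at the stationary-phase transition with the robust mean of no-drug control wells, as a ratio of optical densities. The ratio is capped at 1. Wells of 384-well plates held 30 µl, or 55 µl for S. pneumoniae, inoculated at OD595 0.01. Readings at OD595 every 30 min for 14 h at 37 °C were corrected against the first reading.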

B. subtilis 168 = test system: B. subtilis 168
Summary of the method: as §1

S. aureus Newman = test system: S. aureus Newman
Summary of the method: as §1
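Note: OD595 on entry to stationary phase over no-drug wells; at most 1.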

O=C(O)[C@H]1/C(=C/CO)O[C@@H]2CC(=O)N21 [Clavulanic acid] + C[C@H]1c2cccc(O)c2C(=O)C2=C(O)[C@]3(O)C(=O)C(C(N)=O)=C(O)[C@@H](N(C)C)[C@@H]3[C@@H](O)[C@@H]21 [Doxycycline]
fitness, S. pneumoniae D39V, one replicate
Conditions | first compound 0.5 µg/mL | first compound 1 µg/mL | first compound 2 µg/mL
partner 0.003875 µg/mL | ≥ 1 | 0.985 | 0.9
partner 0.00775 µg/mL | 0.998 | 0.964 | 0.895

Conditions | fitness
B. subtilis 168, first compound 1.5 µg/mL, partner 0.02 µg/mL | 0.862
B. subtilis 168, first compound 1.5 µg/mL, partner 0.04 µg/mL | 0.762
B. subtilis 168, first compound 3 µg/mL, partner 0.02 µg/mL | 0.852
B. subtilis 168, first compound 3 µg/mL, partner 0.04 µg/mL | 0.721
B. subtilis 168, first compound 6 µg/mL, partner 0.02 µg/mL | 0.728
B. subtilis 168, first compound 6 µg/mL, partner 0.04 µg/mL | 0.628
B. subtilis 168, first compound 6 µg/mL, partner 0.08 µg/mL | 0.375
S. pneumoniae D39V, first compound 0.5 µg/mL, partner 0.0155 µg/mL | 0.929
S. pneumoniae D39V, first compound 1 µg/mL, partner 0.0155 µg/mL | 0.892
S. pneumoniae D39V, first compound 1 µg/mL, partner 0.031 µg/mL | 0.615
S. pneumoniae D39V, first compound 1 µg/mL, partner 0.062 µg/mL | 0.429
S. pneumoniae D39V, first compound 2 µg/mL, partner 0.0155 µg/mL | 0.73
S. pneumoniae D39V, first compound 2 µg/mL, partner 0.031 µg/mL | 0.45
S. pneumoniae D39V, first compound 2 µg/mL, partner 0.062 µg/mL | 0.281

O=C(O)[C@H]1/C(=C/CO)O[C@@H]2CC(=O)N21 [Clavulanic acid] + Clc1ccc(COC(Cn2ccnc2)c2ccc(Cl)cc2Cl)c(Cl)c1 [Miconazole]
fitness, S. pneumoniae D39V
Conditions | partner 1.073 µg/mL | partner 1.25 µg/mL | partner 2.145 µg/mL | partner 2.5 µg/mL | partner 4.29 µg/mL | partner 5 µg/mL
first compound 0.5 µg/mL | ≥ 1 | 0.956 | 0.973 | 0.981 | 0.924 | 0.94
first compound 1 µg/mL | ≥ 1 | 0.876 | 0.923 | 0.873 | 0.883 | 0.838
first compound 2 µg/mL | 0.898 | 0.715 | 0.787 | 0.66 | 0.754 | 0.653

O=C(O)[C@H]1/C(=C/CO)O[C@@H]2CC(=O)N21 [Clavulanic acid] + O=C1CN(/N=C/c2ccc([N+](=O)[O-])o2)C(=O)N1 [Nitrofurantoin]
fitness, S. pneumoniae D39V
Conditions | partner 1.285 µg/mL | partner 2 µg/mL | partner 2.57 µg/mL | partner 4 µg/mL | partner 8 µg/mL
first compound 0.5 µg/mL | 0.916 | 0.92 | 0.943 | 0.878 | 0.628
first compound 1 µg/mL | 0.933 | 0.887 | 0.94 | 0.773 | 0.544
first compound 2 µg/mL | 0.883 | 0.658 | 0.874 | 0.59 | 0.358

S. pneumoniae D39V, partner 5.14 µg/mL, one replicate
Conditions | fitness
first compound 0.5 µg/mL | 0.898
first compound 1 µg/mL | 0.852
first compound 2 µg/mL | 0.817

CNC(C)C1CCC(N)C(OC2C(N)CC(N)C(OC3OCC(C)(O)C(NC)C3O)C2O)O1 (stereo unspecified) [Gentamicin] + CC1(C)S[C@@H]2[C@H](NC(=O)Cc3ccccc3)C(=O)N2[C@H]1C(=O)O [Penicillin G]
fitness, S. aureus Newman, main component drawn
Conditions | first compound 0.375 µg/mL | first compound 0.5 µg/mL | first compound 0.75 µg/mL | first compound 1 µg/mL | first compound 1.5 µg/mL | first compound 2 µg/mL
partner 0.0195 µg/mL | 0.836 | 0.901 | 0.82 | 0.937 | 0.865 | 0.98
partner 0.039 µg/mL | 0.948 | 0.897 | 0.914 | 0.939 | 0.944 | 0.96
partner 0.078 µg/mL | 0.944 | 0.842 | 0.925 | 0.886 | 0.918 | 0.924

Clc1ccc(COC(Cn2ccnc2)c2ccc(Cl)cc2Cl)c(Cl)c1 (stereo unspecified) [Miconazole] + CO[C@@]12[C@H](COC(N)=O)C3=C(C(=O)C(C)=C(N)C3=O)N1C[C@@H]1N[C@@H]12 [Mitomycin C]
fitness, S. pneumoniae D39V
Conditions | first compound 1.073 µg/mL | first compound 1.25 µg/mL | first compound 2.145 µg/mL | first compound 2.5 µg/mL | first compound 4.29 µg/mL | first compound 5 µg/mL
partner 0.001075 µg/mL | – | 0.983 | – | 0.979 | – | 0.95
partner 0.002 µg/mL | 0.882 | – | 0.883 | – | 0.779 | –
partner 0.00215 µg/mL | – | 0.88 | – | 0.898 | – | 0.907
partner 0.004 µg/mL | 0.854 | – | 0.826 | – | 0.742 | –
partner 0.0043 µg/mL | – | 0.786 | – | 0.777 | – | 0.812
partner 0.008 µg/mL | 0.718 | – | 0.748 | – | 0.64 | –

Clc1ccc(COC(Cn2ccnc2)c2ccc(Cl)cc2Cl)c(Cl)c1 (stereo unspecified) [Miconazole] + Cc1ncc([N+](=O)[O-])n1CCO [Metronidazole]
fitness, S. pneumoniae D39V
Conditions | first compound 1.073 µg/mL | first compound 1.25 µg/mL | first compound 2.145 µg/mL | first compound 2.5 µg/mL | first compound 4.29 µg/mL | first compound 5 µg/mL
partner 1.073 µg/mL | – | 0.934 | – | 0.955 | – | 0.972
partner 1.25 µg/mL | ≥ 1 | – | ≥ 1 | – | 0.99 | –
partner 2.145 µg/mL | – | 0.932 | – | 0.858 | – | 0.846
partner 2.5 µg/mL | ≥ 1 | – | ≥ 1 | – | 0.888 | –
partner 4.29 µg/mL | – | 0.905 | – | 0.884 | – | 0.94
partner 5 µg/mL | ≥ 1 | – | ≥ 1 | – | 0.984 | –

Cc1onc(-c2ccccc2)c1C(=O)N[C@@H]1C(=O)N2[C@@H]1SC(C)(C)[C@@H]2C(=O)O [Oxacillin] + CC1(C)S[C@@H]2[C@H](NC(=O)Cc3ccccc3)C(=O)N2[C@H]1C(=O)O [Penicillin G]
fitness, S. aureus Newman
Conditions | partner 0.0195 µg/mL | partner 0.039 µg/mL | partner 0.078 µg/mL
first compound 0.0156 µg/mL | 0.768 | 0.748 | 0.727
first compound 0.0312 µg/mL | 0.659 | 0.688 | 0.66
